The results in this text go back to patent publication US12486218B2, “Compounds advantageous in the treatment of central nervous system diseases and disorders” (AurimMed Pharma, Inc., priority 2008, dated 2025).

Data set [1] deals with rats. The data set is described as follows: Lamotrigine-resistant amygdala-kindled rat model (LRM). Type of data set: in vivo. An excerpt: Resistance to Lamotrigine can be induced in rats by treating them with the drug during the kindling acquisition phase (i.e., during kindling development in the epileptogenesis phase). Subsequently, the fully kindled Lamotrigine-refractory rats (i.e., now fully manifesting seizures) are also resistant (cross-tolerant) to carbamazepine, phenytoin, and topiramate, but not to valproate (or diazepam or the clinical Phase III drug candidate, retigabine).
The Lamotrigine-resistant amygdala-kindled rat model (LRM) may thus serve as an early model of drug-resistant (i.e., pharmacoresistant, refractory) epilepsy to identify novel AEDs for further evaluation in more extensive model systems, including the phenytoin-resistant kindled rat
The LRM thus serves to identify novel broad-spectrum AEDs which may be effective in the treatment of drug-resistant epilepsies. Up to 35% of epilepsy patients continue to suffer from uncontrolled seizures because of their drug-resistant epilepsies.

The subject of data set [2] is CYP2C19, CYP2D6, CYP2A6, CYP2C9. The data set can be described thus: In vitro human CYP-450 study, Ki values over the enzymes. The format is in vitro ADME. As to conditions: range over the enzymes, not assigned to single isoforms. An excerpt:
(§1) On the other hand, it is an inhibitor for 2C19, 2D6, 2A6 and 2C9.

The next data set has as its target CYP-450 2A6 (Homo sapiens, UniProt P11509). The data set can be described thus: In vitro human CYP-450 study, 2A6. The format is in vitro ADME. As to conditions: human enzyme.
Description: as §1

The next data set concerns NMDA receptors. The data set can be described thus: Electrophysiology, NMDA current. The format is cell-based. Conditions: at 100 μM [+glycine (1 μM)], holding potential −70 mV. An excerpt:
(§2) The mechanisms of action of many currently marketed anticonvulsant drugs are not fully understood. Although numerous molecular targets exist wherein anticonvulsants may exert an effect, the final common pathway appears to be through modulation of voltage-gated and/or neurotransmitter-gated ion channels. Thus, the common link among the various proposed mechanisms involves the ability of an anticonvulsant to modulate ion channel function. Presently, a number of prototype anticonvulsants are thought to exert their action (at least in part) by reducing sustained, high-frequency repetitive firing of action potentials by modulating voltage-dependent sodium (Na+) channels. The effect of promising candidate substances on voltage-gated Na+ channels can be assessed using state-of-the-art electrophysiological techniques.

For data set [3], the system named is mice. The data set can be described thus: 6 Hz (minimal clonic seizure) model, mice i.p. The format is in vivo. As to conditions: Mus musculus, ip; mice, i.p.; read-out: 6 Hz ED50.
In the next data set the target is CYP-450 3A4 (Homo sapiens, UniProt P08684). The data set is described as follows: In vitro human CYP-450 study, 3A4. Type of data set: in vitro ADME. As to conditions: human enzyme.
Chain of CYP-450 3A4 (P08684 whole entry): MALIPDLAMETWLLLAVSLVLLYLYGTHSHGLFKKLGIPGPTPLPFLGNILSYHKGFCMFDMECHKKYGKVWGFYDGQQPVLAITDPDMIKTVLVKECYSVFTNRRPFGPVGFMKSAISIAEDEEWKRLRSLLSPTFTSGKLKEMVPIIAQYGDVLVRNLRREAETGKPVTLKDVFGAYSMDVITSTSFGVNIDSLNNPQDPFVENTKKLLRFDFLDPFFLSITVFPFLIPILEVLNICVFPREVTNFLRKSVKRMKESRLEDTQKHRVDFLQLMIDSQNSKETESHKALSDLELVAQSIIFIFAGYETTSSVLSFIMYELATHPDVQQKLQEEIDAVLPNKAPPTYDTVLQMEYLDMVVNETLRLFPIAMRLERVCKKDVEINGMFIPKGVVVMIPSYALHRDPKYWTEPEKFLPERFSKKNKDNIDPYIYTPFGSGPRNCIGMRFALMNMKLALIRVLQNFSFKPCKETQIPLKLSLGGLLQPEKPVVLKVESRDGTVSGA
Description: as §1

Data set [4] deals with mice. The data set can be described thus: Corneal kindled mouse model. As to conditions: mice i.p.; 50 mg/kg @ 1.0 hr. The format is in vivo.
Another data set concerns GABA receptors. The data set is described as follows: Electrophysiology, GABA receptor currents. As to conditions: at 100 μM, holding potential −70 mV. Type of data set: cell-based.
Description: as §2

The next data set has as its target CYP-450 1A2 (Homo sapiens, UniProt P05177). The data set is described as follows: In vitro human CYP-450 study, 1A2. Conditions: human enzyme. The format is in vitro ADME.
Description: as §1

The subject of data set [5] is rats. The data set is described as follows: Gender Neutral test (kindled rats). The format is in vivo.
The subject of data set [6] is mice. The data set can be described thus: MPTP-induced Parkinson's disease model in mice, behavioral assays. Type of data set: in vivo, C57/B16 male mice. The method, then:
In FIG. 27A-27C, Data are Illustrated Showing the Effect of Oral Treatment of mice for two weeks with compound BX in an MPTP-induced Parkinson's disease model. MPTP (1-methyl-4-phenyl-1,2,3,6-tetrahydropyridine) is a neurotoxin precursor to MPP+, which causes permanent symptoms of Parkinson's disease by destroying dopaminergic neurons in the substantia nigra of the brain. It has been used to study disease models in various animal studies.
In the study, 9 month-old C57/B16 male mice were treated for 7 days of MPTP injection at a rate of 25 mg/kg dose: once a day. Mice in the treatment group were subsequently treated with 14 days of gavage with compound BX at a rate of 50 μg/gram dose: once a day. Treatment was followed with 5 days of behavioral assays
Mice were scored on the number of legs slips per crossing.
Mice tend to groom more often when they are healthy and feeling content.

Data set [7] concerns rats. The data set can be described thus: Water maze, spatial memory and learning in lithium-pilocarpine treated rats. The format is in vivo. As to conditions: pilocarpine-induced SE rats. The method, then: To assess spatial memory and learning in lithium-pilocarpine treated animals and to identify novel compounds that might ameliorate cognitive deficits and neuronal loss, rats were tested for their ability to navigate a water maze and find a submerged escape platform based only on their ability to remember and assess only extra maze visual cues. Learning can be assessed by quantifying the time that an animal takes to find the platform (latency) over a number of independent trials. Further, this model is sensitive to the hippocampal damage associated with pilocarpine-induced status epilepticus (SE).

Chain of CYP-450 2A6 (P11509 whole entry): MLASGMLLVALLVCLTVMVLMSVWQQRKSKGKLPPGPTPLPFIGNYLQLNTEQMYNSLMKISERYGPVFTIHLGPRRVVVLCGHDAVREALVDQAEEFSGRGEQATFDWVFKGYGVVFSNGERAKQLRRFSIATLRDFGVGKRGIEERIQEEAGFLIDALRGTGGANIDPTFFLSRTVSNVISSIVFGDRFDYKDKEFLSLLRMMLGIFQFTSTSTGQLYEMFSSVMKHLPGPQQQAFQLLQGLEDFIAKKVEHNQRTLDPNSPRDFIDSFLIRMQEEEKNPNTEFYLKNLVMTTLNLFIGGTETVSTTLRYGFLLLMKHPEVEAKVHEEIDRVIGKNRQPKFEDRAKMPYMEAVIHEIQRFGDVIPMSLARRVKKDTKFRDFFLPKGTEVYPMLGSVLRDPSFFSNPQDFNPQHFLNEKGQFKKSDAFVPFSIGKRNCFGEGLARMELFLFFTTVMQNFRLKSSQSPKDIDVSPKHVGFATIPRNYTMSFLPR
Chain of CYP-450 1A2 (P05177 whole entry): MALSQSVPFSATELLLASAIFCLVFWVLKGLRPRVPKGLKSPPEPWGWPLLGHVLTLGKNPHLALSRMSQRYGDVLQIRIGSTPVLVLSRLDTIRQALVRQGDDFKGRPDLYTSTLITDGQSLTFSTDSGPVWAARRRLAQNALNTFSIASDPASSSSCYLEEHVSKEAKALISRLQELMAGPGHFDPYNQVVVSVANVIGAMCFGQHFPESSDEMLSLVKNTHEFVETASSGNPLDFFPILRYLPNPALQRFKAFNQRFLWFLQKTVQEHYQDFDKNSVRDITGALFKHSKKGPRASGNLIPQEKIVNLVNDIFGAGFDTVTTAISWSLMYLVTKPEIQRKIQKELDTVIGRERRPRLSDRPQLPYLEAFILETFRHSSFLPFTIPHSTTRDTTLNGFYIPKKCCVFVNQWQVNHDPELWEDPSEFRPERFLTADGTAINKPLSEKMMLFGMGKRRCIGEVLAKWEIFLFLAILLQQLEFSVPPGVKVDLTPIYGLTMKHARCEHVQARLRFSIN

Turning to `CC(CC(N)=O)c1ccc(OC(F)(F)F)cc1` (racemic) [Compound H, 3-[4-(trifluoromethoxy)-phenyl]butyramide], the “activity in the LRM” value with rats [1] is on record as “active”. Moreover, in data set [2], the inhibition constant Ki (commonly a dissociation constant, usually derived from enzyme kinetics or from competition with a known ligand) was in the range of 29 to 174 µM. Moreover, the “inhibition of CYP-450 2A6” value against CYP-450 2A6 is given as “inhibitor”. Moreover, in the data set on NMDA receptors, the “NMDA current (enhancement)” value is 119±7 % of control. Also, the 50% effective dose (ED50) (usually the dose at which the effect has come halfway, by size or by number of responders) with mice [3] came to 55 mg/kg. Moreover, the “inhibition of CYP-450 3A4” value against CYP-450 3A4 was “either no or only a remote possibility of inhibiting”. Also, in the data set with mice [4], the “Corneal Kindled, Average seizure score” value is on record as 2: (0, 4, and the “Corneal Kindled, fraction of animals” value is given as 2/4 @. Further, the GABA receptor response in the data set with GABA receptors was 108±3 % of control. Besides, the “inhibition of CYP-450 1A2” value against CYP-450 1A2 was “either no or only a remote possibility of inhibiting”. Further, the “efficacy in the two genders” value with rats [5] was “equally efficacious in both genders”.

`C[C@H](CC(N)=O)c1ccc(OC(F)(F)F)cc1` (single isomer, unassigned) [Compound BX, R-(−)-3-(4-Trifluoromethoxy-phenyl)butyramide]: in the data set on mice [6] (gavage 50 μg/gram once a day for 14 days), the “hindlimb clasping test, abnormal involuntary movement” value is listed as “reduced MPTP-induced abnormal involuntary movement”. Also, in the data set with mice [6] (oral treatment for two weeks), the “coat grooming test, grooming behavior” value is listed as “significantly improved the grooming behavior”; the “crossbeam test, motor coordination / leg slips” value was “significantly improved the motor coordination and reduced the number of leg slips”. For the same compound, in the data set with rats [7], the “spatial learning and memory in the water maze task” value is “preserved spatial learning and memory”; the “water maze learning curve in terms of latency” value is recorded as “much faster learning curve”.
